Several values for one entry are separate records, joined by “and”; a condition that tells them apart may be missing. Equal entries are not always repeated. Inconclusive results and toxic doses are left out. No stated cut-off is given here; in the data, active means T/C of 150% or more; inactive means T/C below 125%.
Test system: L1210 leukemia ip in BDF1 mice, survival T/C
Assay: NCI In Vivo Anticancer Drug Screen. Data for tumor model L1210 Leukemia (intraperitoneal) in B6D2F1 (BDF1) mice
Details: endpoint: mean survival time, higher = longer survival
Method in brief: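 In this screen, tumor-bearing mice given compound are compared to those given vehicle, and their survival values are reported as a treated-to-control quotient.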

[1] = dose: 100.0 mg/kg/injection, schedule: Q01DX009 (ip), vehicle: saline
[2] = dose: 200.0 mg/kg/injection, schedule: Q01DX009 (ip), vehicle: saline
[3] = dose: 400.0 mg/kg/injection, schedule: Q01DX009 (ip), vehicle: saline
[4] = dose: 100.0 mg/kg/injection, schedule: Q01DX009 (ip), vehicle: Klucel (hydroxypropylcellulose) (HPC)
[5] = dose: 200.0 mg/kg/injection, schedule: Q01DX009 (ip), vehicle: Klucel (hydroxypropylcellulose) (HPC)
[6] = dose: 100.0 mg/kg/injection, schedule: Q01DX001 (ip), vehicle: saline
[7] = dose: 200.0 mg/kg/injection, schedule: Q01DX001 (ip), vehicle: saline
[8] = dose: 400.0 mg/kg/injection, schedule: Q01DX001 (ip), vehicle: saline
[9] = dose: 50.0 mg/kg/injection, schedule: Q01DX009 (ip), vehicle: Klucel (hydroxypropylcellulose) (HPC)
[10] = dose: 100.0 mg/kg/injection, schedule: Q04DX003 (ip), vehicle: Klucel (hydroxypropylcellulose) (HPC)
[11] = dose: 200.0 mg/kg/injection, schedule: Q04DX003 (ip), vehicle: Klucel (hydroxypropylcellulose) (HPC)
[12] = dose: 400.0 mg/kg/injection, schedule: Q01DX009 (ip), vehicle: Klucel (hydroxypropylcellulose) (HPC)
[13] = dose: 400.0 mg/kg/injection, schedule: Q04DX003 (ip), vehicle: Klucel (hydroxypropylcellulose) (HPC)
[14] = dose: 50.0 mg/kg/injection, schedule: Q01DX009 (ip), vehicle: saline

Measured: T/C

ClC1=C(Cl)C2(Cl)C(c3ccccc3)=CC1(Cl)C2(Cl)Cl (centres undefined)
inactive: dose: 100.0 mg/kg/injection, schedule: Q01DX009 (ip), vehicle: gum acacia 93 % of control | dose: 100.0 mg/kg/injection, schedule: Q04DX003 (ip), vehicle: gum acacia 114 % of control | dose: 200.0 mg/kg/injection, schedule: Q01DX009 (ip), vehicle: gum acacia 90 % of control | dose: 200.0 mg/kg/injection, schedule: Q04DX003 (ip), vehicle: gum acacia 99 % of control | dose: 400.0 mg/kg/injection, schedule: Q01DX009 (ip), vehicle: gum acacia 100 % of control | dose: 400.0 mg/kg/injection, schedule: Q04DX003 (ip), vehicle: gum acacia 92 % of control

N#Cc1[nH]cnc1N1CC[N+](CCCl)=N1
inactive: [1] 104 % of control | [2] 103 % of control | [3] 95 % of control

O=C(Nc1cccc(C(F)(F)F)c1)C(Br)C(Br)c1ccccc1 (centres undefined)
inactive: [4] 103 % of control | [5] 100 % of control

CC(C)C12NC(=O)NC(=O)N1CCS2 (centres undefined)
inactive: dose: 50.0 mg/kg/injection, schedule: Q01DX001 (ip), vehicle: saline 93 % of control | [6] 96 % of control | [7] 100 % of control | [8] 100 % of control

O=C1c2ccccc2C(=O)N1N(c1ccccc1)c1ccccc1
inactive: [9] 108 % of control | [10] 95 % of control | [5] 106 % of control | [11] 97 % of control | [12] 103 % of control | [13] 109 % of control

O=C(NCc1cnccn1)Nc1ccccc1
inactive: dose: 25.0 mg/kg/injection, schedule: Q01DX009 (ip), vehicle: saline 101 % of control | [14] 87 % of control | [1] 108 % of control | [2] 102 % of control | [3] 103 % of control

O=C(O)C(O)C(O)C(O)C(O)C(=O)O (centres undefined)
inactive: [14] 92 % of control | [1] 94 % of control | [10] 95 % of control | [2] 89 % of control | [11] 91 % of control | [3] 92 % of control | [13] 91 % of control | dose: 600.0 mg/kg/injection, schedule: Q01DX001 (ip), vehicle: saline 90 % of control | dose: 600.0 mg/kg/injection, schedule: Q01DX009 (ip), vehicle: saline 100 % of control | dose: 800.0 mg/kg/injection, schedule: Q01DX001 (ip), vehicle: saline 93 % of control and 90 % of control | dose: 800.0 mg/kg/injection, schedule: Q01DX009 (ip), vehicle: saline 97 % of control | dose: 1000.0 mg/kg/injection, schedule: Q01DX001 (ip), vehicle: saline 95 % of control and 88 % of control | dose: 1000.0 mg/kg/injection, schedule: Q01DX009 (ip), vehicle: saline 100 % of control

NC(=O)C(CC(=O)OCc1ccccc1)NC(=O)OCc1ccccc1 (centres undefined)
inactive: dose: 100.0 mg/kg/injection, schedule: Q01DX009 (ip), vehicle: saline with Tween-80 92 % of control | dose: 200.0 mg/kg/injection, schedule: Q01DX009 (ip), vehicle: saline with Tween-80 90 % of control | dose: 400.0 mg/kg/injection, schedule: Q01DX009 (ip), vehicle: saline with Tween-80 97 % of control

C1=CC23C4CCC2C2C4C4C(=C1)C3C2N1CCCCC41 (centres undefined)
inactive: dose: 12.5 mg/kg/injection, schedule: Q04DX003 (ip), vehicle: Klucel (hydroxypropylcellulose) (HPC) 98 % of control | dose: 25.0 mg/kg/injection, schedule: Q01DX009 (ip), vehicle: Klucel (hydroxypropylcellulose) (HPC) 105 % of control | dose: 25.0 mg/kg/injection, schedule: Q04DX003 (ip), vehicle: Klucel (hydroxypropylcellulose) (HPC) 104 % of control | [9] 103 % of control | dose: 50.0 mg/kg/injection, schedule: Q04DX003 (ip), vehicle: Klucel (hydroxypropylcellulose) (HPC) 96 % of control | [10] 107 % of control

Cc1ncc(C(O)c2ccccc2)n1Cc1ccccc1 (centres undefined)
inactive: dose: 100.0 mg/kg/injection, schedule: Q01DX001 (ip), vehicle: Klucel (hydroxypropylcellulose) (HPC) 94 % of control | [4] 93 % of control and 107 % of control | [10] 106 % of control | dose: 200.0 mg/kg/injection, schedule: Q01DX001 (ip), vehicle: Klucel (hydroxypropylcellulose) (HPC) 100 % of control | [5] 93 % of control and 103 % of control | [11] 97 % of control | dose: 400.0 mg/kg/injection, schedule: Q01DX001 (ip), vehicle: Klucel (hydroxypropylcellulose) (HPC) 98 % of control | [12] 104 % of control and 89 % of control | [13] 99 % of control

Cc1cccc(C(=O)[O][Pb]([CH3])([CH3])[CH3])c1
inactive: dose: 12.5 mg/kg/injection, schedule: Q04DX002 (ip), vehicle: Klucel (hydroxypropylcellulose) (HPC) 100 % of control

O=C(O)c1cccc2c1-c1ccccc1C(Br)C2Br (centres undefined)
inactive: dose: 200.0 mg/kg/injection, schedule: Q04DX002 (ip), vehicle: saline with Tween-80 101 % of control

C(=Nc1cccnc1)c1c[nH]c2ccccc12
inactive: [4] 95 % of control | [5] 86 % of control | [12] 89 % of control

O=C(O)CCCN1C(=O)CCC1=O
inactive: dose: 100.0 mg/kg/injection, schedule: Q04DX003 (ip), vehicle: saline 97 % of control | dose: 200.0 mg/kg/injection, schedule: Q04DX003 (ip), vehicle: saline 95 % of control | dose: 400.0 mg/kg/injection, schedule: Q04DX003 (ip), vehicle: saline 106 % of control

CC(=O)Oc1c2c(c(OC(C)=O)c3c1C(=O)c1ccccc1C3=O)CCCC2
inactive: [6] 98 % of control | [7] 92 % of control | [8] 98 % of control

CC(=O)Nc1ccc(N=C(N)c2ccc(C(N)=Nc3ccc(NC(C)=O)cc3)cc2)cc1
inactive: dose: 62.0 mg/kg/injection, schedule: Q01DX015 (ip), vehicle: methylcellulose (MC) 98 % of control | dose: 125.0 mg/kg/injection, schedule: Q01DX015 (ip), vehicle: methylcellulose (MC) 86 % of control | dose: 250.0 mg/kg/injection, schedule: Q01DX015 (ip), vehicle: methylcellulose (MC) 91 % of control | dose: 500.0 mg/kg/injection, schedule: Q01DX015 (ip), vehicle: methylcellulose (MC) 86 % of control

Cn1c(=O)c2c(nc(CCC3CCCC3)n2C)n(C)c1=O
inactive: dose: 50.0 mg/kg/injection, schedule: Q01DX001 (ip), vehicle: carboxymethylcellulose (CMC) 92 % of control | dose: 100.0 mg/kg/injection, schedule: Q01DX001 (ip), vehicle: carboxymethylcellulose (CMC) 97 % of control | dose: 200.0 mg/kg/injection, schedule: Q01DX001 (ip), vehicle: carboxymethylcellulose (CMC) 90 % of control | dose: 400.0 mg/kg/injection, schedule: Q01DX001 (ip), vehicle: carboxymethylcellulose (CMC) 97 % of control

CC12C=CC3(CCC4C(C)(C)C(OC5OC(CO)C(O)C(O)C5O)C(=O)CC4(C)C3CC1=O)C2 (centres undefined)
inactive: [6] 100 % of control | [7] 109 % of control | [8] 97 % of control
